{"source": "patent US9408908B2", "about": "“Combination adjuvant formulation” (University of Saskatchewan, priority 2008, dated 2016)", "key": {"S. aureus": {"tested_on": "S. aureus", "assay": "Protection against S. aureus infection in mice", "type": "in vivo, BALB/c mice", "conditions": "8 mg/kg i.p. 4 h prior to infection; bacterial counts in peritoneal lavage at 24 h", "method": "(§1) These peptides were tested for induction of chemokines and cytokines in human PBMCs. Human PBMCs stimulated with 20 and 100 μg/ml of host defense peptides were assessed for various cytokines and chemokines at the 24 hour time-point by ELISA (eBiosciences). […] Subsequently, selected host defense peptides were examined for protective activity in vivo. Briefly, BALB/c mice were administered peptides (8 mg/kg) by i.p. administration 4 h prior to infection. Mice were infected with 8.4×10^7 S. aureus in 5% mucin by i.p. administration. Bacterial counts in the peritoneal lavage were determined in 24 h after the initiation of infection."}, "human PBMC [1]": {"tested_on": "human PBMC", "assay": "MCP-1 induction by triple adjuvant formulations (peptide, CpG 10103, PCPP) in human PBMC", "type": "cell-based", "conditions": "24 hours, peptide 40 μg/ml, CpG 20 μg/ml, no PCPP, average of 4 biological replicates", "description": "The effect of PCPP addition on chemokine induction by peptide-CpG 10103 complexes was assessed by the induction of MCP-1 in human PBMCs. Briefly, peptide-CpG complexes were formed as previously described and following incubation PCPP, with or without MgCl2 (pH 7.4), was added to the peptide-CpG complexes at various concentrations and incubated for 30 min at 37° C. Following incubation, human PBMCs were stimulated with the various formulations for 24 hours and levels of MCP-1 were measured by ELISA."}, "human PBMC [2]": {"tested_on": "human PBMC", "assay": "Chemokine induction by host defense peptides in human PBMC (ELISA)", "type": "cell-based", "method": "as §1"}, "[3]": {"tested_on": "human PBMCs and human red blood cells", "assay": "Cytotoxicity: LDH release in human PBMCs and haemolysis of human red blood cells"}, "ΔF from BRSV": {"tested_on": "ΔF from BRSV", "assay": "Immunization of mice with BRSV ΔF protein co-formulated with CpG ODN 1826, indolicidin and/or polyphosphazene", "type": "in vivo, C57BL/6 and Balb/c mice", "conditions": "overall conclusion", "description": "Six- to eight-week-old female C57BL/6 mice (Charles River, Montreal, Quebec) were immunized twice subcutaneously at 3 week intervals with 100 μL of vaccine containing 0.5 μg ΔF from BRSV (a truncated form of the BRSV F protein engineered to lack the transmembrane domain (aa1-522 only), either alone, or co-formulated with CpG oligonucleotide 1826 (CpG ODN), indolicidin (indol), and/or polyphosphazene (PP). CpG ODN, indolicidin and polyphosphazene were given at doses of 10 μg, 20 μg, and 50 μg, respectively. Negative control animals were immunized with buffer (placebo). CpG ODN 1826 ([…]) (SEQ ID NO:8) was provided by Merial (Lyon, France), and contained a phosphorothioate-modified backbone. […]\nStatistical analysis was carried out using GraphPad Prism version 5.00 for Windows (GraphPad Software, San Diego, Calif.). Differences between groups were determined using a Mann-Whitney U test.\nCpG ODN 1826, indolicidin, and polyphosphazene were examined for their ability to enhance antigen-specific immune responses when administered with the ΔF protein, either alone, or co-formulated with CpG, indolicidin, and/or PP. […] Mice were immunized twice subcutaneously, and serum total anti-ΔF IgG titers were measured after each immunization by ELISA. […]"}, "human PBMCs": {"tested_on": "human PBMCs", "assay": "MCP-1 induction by nucleic acid-peptide formulations in human PBMCs", "type": "cell-based", "conditions": "human PBMCs 24 hours; coupled with peptide 1002 or 1018; four biological replicates", "description": "Chemokine induction by nucleic acid-peptide formulations Direct complex formation between the various nucleic acids and synthetic host defense peptides was verified prior to human PBMC stimulations. For determination of the immunostimulatory activities of various nucleic acids in complex with host defense peptides in vitro, the following experiment was conducted. Various combinations of CpG ODN 10103, non-CpG ODN 5′[…]3′ (SEQ ID NO:13), poly(I:C) and the synthetic host defense peptides 1002 and 1018 were examined for chemokine induction. Briefly, nucleic acids and peptide were co-incubated for 30 min at 37° C. prior to cell stimulations. Human PBMCs were stimulated with the various formulations for 24 hours and levels of MCP-1 were measured by ELISA. Optimal ratios 2:1, 1:1 and 1:2 nucleic acid:host defense peptide (μg/ml:μg/ml) were identified between concentration thresholds of 40 μg/ml and 10 μg/ml. The results were from four biological replicates."}, "[4]": {"tested_on": "human cord blood mononuclear cells", "assay": "Peptide activity in human cord blood mononuclear cells", "type": "cell-based", "method": "as §1"}, "[5]": {"assay": "Effect of indolicidin dose on adjuvant activity with CpG ODN 1826 (unpublished results)", "type": "in vivo", "conditions": "20 μg of peptide co-administered with CpG ODN 1826", "text": "Adjuvant doses were selected based on previous reports of adjuvanticity of the individual components."}, "[6]": {"assay": "Cytokine production by indolicidin with CpG ODN (unpublished results)", "text": "The combination of indolicidin, however, along with CpG ODN and polyphosphazene enhanced ΔF-specific humoral and cellular immune responses, and generated a Th1 response. […] The combination of all three adjuvants was required for optimal enhancement of the immune response, as well as to shift the resulting anti-ΔF immune response from Th2 to Th1. However the mechanisms of this immune enhancement are unclear. Without being bound by a particular theory, the enhanced immunogenicity and Th1-biasing effect of the combination with all three adjuvants with ΔF could be as a result of the stabilization and prolonged effect of CpG ODN and/or ΔF, and an increased uptake of CpG ODN and ΔF into antigen-presenting cells."}, "[7]": {"conditions": "human PBMC, peptide concentration 20 μg/ml"}, "[8]": {"conditions": "human PBMC, peptide concentration 20 μg/ml, 24 hour, ELISA"}, "[9]": {"conditions": "human PBMC, peptide concentration 100 μg/ml"}, "[10]": {"conditions": "human PBMC, peptide concentration 100 μg/ml, 24 hour, ELISA"}, "[11]": {"conditions": "Table 2, JK peptides, human PBMCs, peptide concentration 20 μg/ml"}, "[12]": {"conditions": "Table 2, JK peptides, human PBMCs, peptide concentration 100 μg/ml"}, "[13]": {"conditions": "Table 3, indolicidin derivatives, human PBMCs, peptide concentration 20 (unit not given)"}, "[14]": {"conditions": "Table 3, indolicidin derivatives, human PBMCs, peptide concentration 100 (unit not given)"}}, "note": "Entries after “also recorded” stand apart in the source; their conditions may differ. No end group written: not given here."}
{"substance": "Nisin Z [reference compound]", "values": [{"measurement": "protection in animal challenges against S. aureus", "setting": "S. aureus", "value": "offered protection"}, {"measurement": "MCP-1 Induction", "setting": "human PBMC [1]", "value": 47, "unit": "pg/mL"}, {"measurement": "Chemokine Induction Gro-α", "setting": "human PBMC [2]; [7]", "value": 62, "unit": "pg/mL"}, {"measurement": "Chemokine Induction MCP-1", "setting": "human PBMC [2]; [8]", "value": 434, "unit": "pg/mL"}, {"measurement": "Chemokine Induction Gro-α", "setting": "human PBMC [2]; [9]", "value": 5811, "unit": "pg/mL"}, {"measurement": "Chemokine Induction MCP-1", "setting": "human PBMC [2]; [10]", "value": 7329, "unit": "pg/mL"}]}
{"substance": "JK5: peptide VQWRAIRVRVIR (SEQ ID NO:6) (JK5)", "values": [{"measurement": "Chemokine Induction Gro-α", "setting": "human PBMC [2]; [11]", "value": 317, "unit": "pg/mL"}, {"measurement": "Chemokine Induction MCP-1", "setting": "human PBMC [2]; [11]", "value": 673, "unit": "pg/mL"}, {"measurement": "Chemokine Induction Gro-α", "setting": "human PBMC [2]; [12]", "value": 123, "unit": "pg/mL"}, {"measurement": "Chemokine Induction MCP-1", "setting": "human PBMC [2]; [12]", "value": 529, "unit": "pg/mL"}]}
{"substance": "VQRWLIVWRIRK [Peptide 1002]", "values": [{"measurement": "cytotoxicity (LDH release in human PBMCs, haemolysis of human red blood cells)", "setting": "[3]", "value": "minimal cytotoxicity"}]}
{"substance": "JK3: peptide VQLRAIRVRVIR (SEQ ID NO:4) (JK3)", "values": [{"measurement": "Chemokine Induction Gro-α", "setting": "human PBMC [2]; [11]", "value": 430, "unit": "pg/mL"}, {"measurement": "Chemokine Induction MCP-1", "setting": "human PBMC [2]; [11]", "value": 873, "unit": "pg/mL"}, {"measurement": "Chemokine Induction Gro-α", "setting": "human PBMC [2]; [12]", "value": 320, "unit": "pg/mL"}, {"measurement": "Chemokine Induction MCP-1", "setting": "human PBMC [2]; [12]", "value": 747, "unit": "pg/mL"}]}
{"substance": "CpG ODN 1826", "values": [{"measurement": "type and enhancement of ΔF-specific immune response", "setting": "ΔF from BRSV", "value": "shift towards a Th1 or balanced immune response"}]}
{"substance": "JK6: peptide VQWRRIRVWVIR (SEQ ID NO:7) (JK6)", "values": [{"measurement": "Chemokine Induction Gro-α", "setting": "human PBMC [2]; [11]", "value": 254, "unit": "pg/mL"}, {"measurement": "Chemokine Induction MCP-1", "setting": "human PBMC [2]; [11]", "value": 721, "unit": "pg/mL"}, {"measurement": "Chemokine Induction Gro-α", "setting": "human PBMC [2]; [12]", "value": 68, "unit": "pg/mL"}, {"measurement": "Chemokine Induction MCP-1", "setting": "human PBMC [2]; [12]", "value": 671, "unit": "pg/mL"}]}
{"substance": "VRLIVAVRIWRR-NH2 [Peptide 1018]", "values": [{"measurement": "cytotoxicity (LDH release in human PBMCs, haemolysis of human red blood cells)", "setting": "[3]", "value": "minimal cytotoxicity"}]}
{"substance": "polyriboinosinic acid-polyribocytidylic acid [poly(I:C)]", "values": [{"measurement": "induction of MCP-1 versus individual components", "setting": "human PBMCs", "value": "synergistic induction of MCP-1"}]}
{"substance": "HH18: host defense peptide IWVIWRR (SEQ ID NO:21) (HH18)", "values": [{"measurement": "Chemokine Induction Gro-α", "setting": "human PBMC [2]; [7]", "value": 865, "unit": "pg/mL"}, {"measurement": "Chemokine Induction MCP-3", "setting": "human PBMC [2]; [7]", "value": 32, "unit": "pg/mL"}, {"measurement": "Chemokine Induction MCP-1", "setting": "human PBMC [2]; [8]", "value": 1111, "unit": "pg/mL"}, {"measurement": "Chemokine Induction Gro-α", "setting": "human PBMC [2]; [9]", "value": 2964, "unit": "pg/mL"}, {"measurement": "Chemokine Induction MCP-3", "setting": "human PBMC [2]; [9]", "value": 431, "unit": "pg/mL"}, {"measurement": "Chemokine Induction MCP-1", "setting": "human PBMC [2]; [10]", "value": 9608, "unit": "pg/mL"}, {"measurement": "induction of chemokines and cytokines in human PBMCs (ranking in panel)", "setting": "human PBMC [2]; panel of 20 HH-class peptides, 20 and 100 μg/ml, 24 hour", "value": "most active peptides"}, {"measurement": "activity in human cord blood mononuclear cells", "setting": "[4]", "value": "further confirmed"}]}
{"substance": "indolicidin [reference compound]", "values": [{"measurement": "Chemokine Induction Gro-α", "setting": "human PBMC [2]; [13]", "value": 84, "unit": "pg/mL"}, {"measurement": "Chemokine Induction MCP-1", "setting": "human PBMC [2]; [13]", "value": 245, "unit": "pg/mL"}, {"measurement": "Chemokine Induction Gro-α", "setting": "human PBMC [2]; [14]", "value": 846, "unit": "pg/mL"}, {"measurement": "Chemokine Induction MCP-1", "setting": "human PBMC [2]; [14]", "value": 3120, "unit": "pg/mL"}, {"measurement": "adjuvant activity and class switching to IgG2a by dose", "setting": "[5]", "value": "enhanced antigen-specific immune responses and effected class switching to IgG2a better than when the peptide was administered at a 10-fold higher dose"}, {"measurement": "type and enhancement of ΔF-specific immune response", "setting": "ΔF from BRSV", "value": "sustain the type-2 immune response; also recorded: did not appear to be an effective adjuvant"}, {"measurement": "production of Th1 cytokines IL-12 and IFN-γ and chemotactic factor MCP-1", "setting": "[6]", "value": "acts synergistically with CpG ODN"}]}
{"substance": "JK1: peptide VFLRRIRVIVIR (SEQ ID NO:2) (JK1)", "values": [{"measurement": "Chemokine Induction Gro-α", "setting": "human PBMC [2]; [11]", "value": 377, "unit": "pg/mL"}, {"measurement": "Chemokine Induction MCP-1", "setting": "human PBMC [2]; [11]", "value": 663, "unit": "pg/mL"}, {"measurement": "Chemokine Induction Gro-α", "setting": "human PBMC [2]; [12]", "value": 105, "unit": "pg/mL"}, {"measurement": "Chemokine Induction MCP-1", "setting": "human PBMC [2]; [12]", "value": 1226, "unit": "pg/mL"}]}
{"substance": "JK4: peptide VQLRRIRVWVIR (SEQ ID NO:5) (JK4)", "values": [{"measurement": "Chemokine Induction Gro-α", "setting": "human PBMC [2]; [11]", "value": 245, "unit": "pg/mL"}, {"measurement": "Chemokine Induction MCP-1", "setting": "human PBMC [2]; [11]", "value": 655, "unit": "pg/mL"}, {"measurement": "Chemokine Induction Gro-α", "setting": "human PBMC [2]; [12]", "value": 80, "unit": "pg/mL"}, {"measurement": "Chemokine Induction MCP-1", "setting": "human PBMC [2]; [12]", "value": 557, "unit": "pg/mL"}]}
